In article PMC9896555, “Cyclic Acetals as Novel Long-Lasting Mosquito Repellents” (Journal of Agricultural and Food Chemistry, 2023):
Read-outs that look alike come from different tables or passages of the source.

Test system: Aedes albopictus
Experiment: Protection time at 0.17 mg/cm2, human-bait technique
Assay type: in vivo
Conditions: for Average PT >95% (% coefficient of variation) / Estimated 100% PT (complete protection time, mean±SE): at the dose of 0.17mg/cm2; for Estimated 100% PT (complete protection time, mean±SE): Kaplan–Meier estimate; for repellent activity, in words: against A. albopictus; for pest or weed control at 0.17 mg/cm2, 0.17 mg/cm2: Aedes albopictus, topical, read-out: Protection time PE%; for Protection time (95% protection): dose of 0.17 mg/cm^2, tests ended after 8 h
Method: To evaluate the protection time of derivatives, the PE % was measured with 100 μL of a 5% ethanol solution, corresponding to 0.17 mg/cm^2 of exposed skin, under the same laboratory conditions. Mosquito-exposed skin was treated with 100 μL of ethanol, as the negative hand control. For each volunteer (up to 8), the test was performed every hour, up to 8 h from the application. The protection time of DEET and Icaridin was measured under the same conditions. Since these trials were run in parallel with those aimed to profile the cytotoxicity of the compounds (paragraph 2.6), we interrupted the experiments for those compounds showing to have higher cytotoxicity than Icaridin and DEET as soon as the results were available. For this reason, the number of volunteers differs among the compounds.
The average time until protection which was higher than 95% protection time was considered for each compound. Moreover, for the compounds tested on at least three volunteers, the complete (100%) protection time was also estimated (SPSS 28.01.0) using the Kaplan–Meier survivor function procedure.[22]

CC(C)=CCCC1(C)OCC(CO)O1 (mixture of isomers) [8a]
Protection time PE% (0.17mg/cm2, 0 min): 100%
Protection time PE% (0.17mg/cm2, 1 h): 100%
Protection time PE% (0.17mg/cm2, 2 h): 100%
Protection time PE% (0.17mg/cm2, 3 h): 100%
Protection time PE% (0.17mg/cm2, 4 h): 100%
Protection time PE% (0.17mg/cm2, 5 h): 99.39%
Protection time PE% (0.17mg/cm2, 6 h): 100%
Protection time PE% (0.17mg/cm2, 7 h): 97.44%
Protection time PE% (0.17mg/cm2, 8 h): 84.95%

CCCCCCCC1OCC(C)(CO)CO1 (mixture of isomers) [9b]
Protection time PE% (0.17mg/cm2, 0 min): 97.02%
Protection time PE% (0.17mg/cm2, 1 h): 98.5%
Protection time PE% (0.17mg/cm2, 3 h): 98.35%
Protection time PE% (0.17mg/cm2, 4 h): 100%
Protection time PE% (0.17mg/cm2, 5 h): 97.67%
Protection time PE% (0.17mg/cm2, 6 h): 93.8%
Protection time PE% (0.17mg/cm2, 7 h): 96.63%
Protection time PE% (0.17mg/cm2, 8 h): 91.73%
Average PT >95% (% coefficient of variation): 420 (5.6) min
Estimated 100% PT (complete protection time, mean±SE): 120 ± 105 min

CCCCC(CC)C1OCC(CO)O1 (mixture of isomers) [10a]
Protection time PE% (0.17mg/cm2, 0 min): 100%
Protection time PE% (0.17mg/cm2, 1 h): 100%
Protection time PE% (0.17mg/cm2, 2 h): 100%
Protection time PE% (0.17mg/cm2, 3 h): 100%
Protection time PE% (0.17mg/cm2, 4 h): 100%
Protection time PE% (0.17mg/cm2, 5 h): 97.5%
Protection time PE% (0.17mg/cm2, 6 h): 100%
Protection time PE% (0.17mg/cm2, 7 h): 63.17%
Average PT >95% (% coefficient of variation): 360 (56.8) min

CCCCCC1(CC)OCC(CO)O1 (mixture of isomers) [11a]
Protection time PE% (0.17mg/cm2, 0 min): 100%
Protection time PE% (0.17mg/cm2, 1 h): 100%
Protection time PE% (0.17mg/cm2, 2 h): 100%
Protection time PE% (0.17mg/cm2, 3 h): 100%
Protection time PE% (0.17mg/cm2, 4 h): 98.12%
Protection time PE% (0.17mg/cm2, 5 h): 93.19%
Protection time PE% (0.17mg/cm2, 6 h): 72.96%
Average PT >95% (% coefficient of variation): 240 (3.8) min
Estimated 100% PT (complete protection time, mean±SE): 345 ± 66 min

CCCCCCCCC1OCC(CO)O1 (mixture of isomers) [13a]
Protection time PE% (0.17mg/cm2, 0 min): 99.47%
Protection time PE% (0.17mg/cm2, 1 h): 100%
Protection time PE% (0.17mg/cm2, 2 h): 100%
Protection time PE% (0.17mg/cm2, 3 h): 99.41%
Protection time PE% (0.17mg/cm2, 4 h): 100%
Protection time PE% (0.17mg/cm2, 5 h): 97.22%
Protection time PE% (0.17mg/cm2, 6 h): 99.06%
Protection time PE% (0.17mg/cm2, 7 h): 96.82%
Protection time PE% (0.17mg/cm2, 8 h): 82.75%
Average PT >95% (% coefficient of variation): 420 (4.7) min
Estimated 100% PT (complete protection time, mean±SE): 270 ± 77 min

CC(C)(C)C1CCC2(CC1)OCC(CO)O2 (mixture of isomers) [19a]
Average PT >95% (% coefficient of variation): 0 min

CC1(CCc2ccccc2)OCC(CO)O1 (mixture of isomers) [20a]
Average PT >95% (% coefficient of variation): 0 min

CC(C)c1ccc(C2OCC(CO)O2)cc1 (mixture of isomers) [21a]
Average PT >95% (% coefficient of variation): 0 min

CCCCCCCCCCCC1OCC(CO)O1 (mixture of isomers) [24a]
Average PT >95% (% coefficient of variation): 0 min

CC(C)CC1(CC(C)C)OCC(CO)O1 (racemic) [17a]
Protection time PE% (0.17mg/cm2, 0 min): 100%
Protection time PE% (0.17mg/cm2, 1 h): 100%
Protection time PE% (0.17mg/cm2, 2 h): 100%
Protection time PE% (0.17mg/cm2, 3 h): 100%
Protection time PE% (0.17mg/cm2, 4 h): 98%
Protection time PE% (0.17mg/cm2, 5 h): 98.39%
Protection time PE% (0.17mg/cm2, 6 h): 92.05%
Protection time PE% (0.17mg/cm2, 7 h): 74.4%
Protection time PE% (0.17mg/cm2, 8 h): 43.92%
Average PT >95% (% coefficient of variation): 300 (2.3) min

OCC1COC2(CCCCCCCCCCC2)O1 (racemic) [25a]
Average PT >95% (% coefficient of variation): 0 min

CC1(CO)COC(C)(C)OC1 [5b]
repellent activity, in words: lack of activity
Average PT >95% (% coefficient of variation): 0 min

CCCC1(CCC)OCC(C)(CO)CO1 [7b]
Protection time PE% (0.17mg/cm2, 0 min): 100%
Protection time PE% (0.17mg/cm2, 1 h): 99.45%
Protection time PE% (0.17mg/cm2, 2 h): 100%
Protection time PE% (0.17mg/cm2, 3 h): 99.21%
Protection time PE% (0.17mg/cm2, 4 h): 98.74%
Protection time PE% (0.17mg/cm2, 5 h): 98.42%
Protection time PE% (0.17mg/cm2, 6 h): 84.33%
Average PT >95% (% coefficient of variation): 300 (1.4) min
Estimated 100% PT (complete protection time, mean±SE): 220 ± 87 min

CCCC1(CCC)OCC(CC)(CO)CO1 [7c]
Protection time PE% (0.17mg/cm2, 0 min): 99.35%
Protection time PE% (0.17mg/cm2, 1 h): 94.12%
Protection time PE% (0.17mg/cm2, 2 h): 97.7%
Protection time PE% (0.17mg/cm2, 3 h): 98.08%
Protection time PE% (0.17mg/cm2, 4 h): 99.4%
Protection time PE% (0.17mg/cm2, 5 h): 91.72%
Protection time PE% (0.17mg/cm2, 6 h): 97.22%
Protection time PE% (0.17mg/cm2, 7 h): 94.29%
Protection time PE% (0.17mg/cm2, 8 h): 94.44%
Average PT >95% (% coefficient of variation): 360 (3.3) min
Estimated 100% PT (complete protection time, mean±SE): 60 ± 34 min

CC1(CO)COC2(CCCCCCC2)OC1 [12b]
pest or weed control at 0.17 mg/cm2, 0.17 mg/cm2 (0.17mg/cm2, 1 h): 100%
pest or weed control at 0.17 mg/cm2, 0.17 mg/cm2 (0.17mg/cm2, 2 h): 99.5%
pest or weed control at 0.17 mg/cm2, 0.17 mg/cm2 (0.17mg/cm2, 3 h): 98.7%
pest or weed control at 0.17 mg/cm2, 0.17 mg/cm2 (0.17mg/cm2, 4 h): 97.8%
pest or weed control at 0.17 mg/cm2, 0.17 mg/cm2 (0.17mg/cm2, 5 h): 97.2%
pest or weed control at 0.17 mg/cm2, 0.17 mg/cm2 (0.17mg/cm2, 6 h): 93.8%
pest or weed control at 0.17 mg/cm2, 0.17 mg/cm2 (0.17mg/cm2, 7 h): 98.2%
pest or weed control at 0.17 mg/cm2, 0.17 mg/cm2 (0.17mg/cm2, 8 h): 94.9%
Average PT >95% (% coefficient of variation): 420 (3.1) min
Estimated 100% PT (complete protection time, mean±SE): 240 ± 60 min
Protection time (95% protection): 7 h

CCC1(CO)COC(CC(C)C)(CC(C)C)OC1 [17c]
Protection time PE% (0.17mg/cm2, 0 min): 98.72%
Protection time PE% (0.17mg/cm2, 1 h): 97.92%
Protection time PE% (0.17mg/cm2, 2 h): 98.68%
Protection time PE% (0.17mg/cm2, 3 h): 100%
Protection time PE% (0.17mg/cm2, 4 h): 98.44%
Protection time PE% (0.17mg/cm2, 5 h): 98.08%
Protection time PE% (0.17mg/cm2, 6 h): 98.53%
Protection time PE% (0.17mg/cm2, 7 h): 100%
Protection time PE% (0.17mg/cm2, 8 h): 100%
Average PT >95% (% coefficient of variation): 480 (0) min
Protection time (95% protection): 8 h

CCCCCCCCCC1OCC(O)CO1 (stereo not drawn) [trans-18a.6]
repellent activity, in words: inactive as a repellent
